Measured values taken from patent US11447475B2, “Isoxazole N-linked carbamoyl cyclohexyl acids as LPA antagonists” (BRISTOL-MYERS SQUIBB COMPANY, priority 2017, dated 2022).

Tests used:
IPF patients = conditions: 26-week clinical trial in IPF patients; cited from earlier work
human LPA1 = biological target: T1, human LPA1 (Homo sapiens, UniProt Q92633); assay: LPA1 functional antagonist assay (calcium flux); assay type: cell-based; conditions: read-out: hLPA1 IC50
T1 construct: expressed in transfected cells; host or cells: Chinese hamster ovary (CHO) cells
Procedure: The effectiveness of compounds of the present invention as LPA1 inhibitors can be determined in an LPA1 functional antagonist assay as follows:
Chinese hamster ovary cells overexpressing human LPA1 were plated overnight (15,000 cells/well) in poly-D-lysine coated 384-well microplates (Greiner bio-one, Cat #781946) in DMEM/F12 medium (Gibco, Cat #11039). Following overnight culture, cells were loaded with calcium indicator dye (AAT Bioquest Inc, Cat #34601) for 30 minutes at 37° C. The cells were then equilibrated to room temperature for 30 minutes before the assay. Test compounds solubilized in DMSO were transferred to 384 well non-binding surface plates (Corning, Cat #3575) using the Labcyte Echo acoustic dispense and diluted with assay buffer [1×HBSS with calcium/magnesium (Gibco Cat #14025-092), 20 mM HEPES (Gibco Cat #15630-080) and 0.1% fatty acid free BSA (Sigma Cat #A9205)] to a final concentration of 0.5% DMSO. Diluted compounds were added to the cells by FDSS6000 (Hamamatsu) at final concentrations ranging from 0.08 nM to 5 μM. and were then incubated for 20 min at room temperature at which time LPA (Avanti Polar Lipids Cat #857130C) was added at final concentrations of 10 nM to stimulate the cells. […] IC50 values were determined by fitting data to a 4-parameter logistic equation (GraphPad Prism, San Diego Calif.).

nerve-injured mice = conditions: pretreatment; cited from earlier work
[1] = test system: highly peritoneal metastatic pancreatic cancer cell line; conditions: LPA-induced and ascites-induced; cited from earlier work
[2] = test system: pancreatic cancer cell lines; conditions: in response to LPA and peritoneal fluid (ascites) from pancreatic cancer patients; cited from earlier work
UUO mice = UUO mice treated with the antagonist, compared with LPA1 (−/−) mice; cited from earlier work
[3] = test system: mouse epithelial renal cell line, MCT; conditions: LPA treatment of MCT cells, co-treatment with antagonist; cited from earlier work
[4] = test system: human foetal lung fibroblasts; conditions: induced by BAL obtained from IPF patients; cited from earlier work

T1 sequence (Q92633 whole entry): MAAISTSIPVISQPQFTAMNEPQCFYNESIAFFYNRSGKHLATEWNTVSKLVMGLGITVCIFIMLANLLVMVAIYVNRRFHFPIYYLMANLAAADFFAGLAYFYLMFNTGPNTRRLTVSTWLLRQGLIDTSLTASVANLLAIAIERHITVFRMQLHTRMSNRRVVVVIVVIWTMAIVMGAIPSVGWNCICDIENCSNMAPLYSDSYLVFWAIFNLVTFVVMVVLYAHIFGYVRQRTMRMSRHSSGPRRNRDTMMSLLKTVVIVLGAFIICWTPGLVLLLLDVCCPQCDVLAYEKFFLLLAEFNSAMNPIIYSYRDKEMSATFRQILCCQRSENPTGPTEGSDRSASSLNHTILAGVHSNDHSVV

SMILES	IC50 (human LPA1)	further results
Cc1noc(-c2ccc(-c3ccc(C4(C(=O)O)CC4)cc3)cc2)c1NC(=O)O[C@H](C)c1ccccc1 [BMS-986020]		rate of FVC (forced vital capacity) decline (IPF patients): significantly reduce
Cc1noc(-c2ccc(O[C@H]3CCC[C@H](C(=O)O)C3)cn2)c1CNC(=O)CCc1ccccc1 [Example 54, (1S,3S)-3-((6-(3-methyl-4-((3-phenylpropanamido)methyl)isoxazol-5-yl)pyridin-3-yl)oxy)cyclohexane-1-carboxylic Acid]	255 nM	
CCC[C@H](C)OC(=O)NCc1c(C)noc1-c1ccc(O[C@H]2CCC[C@H](C(=O)O)C2)cn1 [Example 55, (1S,3S)-3-((6-(3-methyl-4-((((((S)-pentan-2-yl)oxy)carbonyl)amino) Methyl) Isoxazol-5-yl)pyridin-3-yl)oxy)cyclohexane-1-carboxylic Acid]	23 nM	
CCC[C@@H](C)OC(=O)NCc1c(C)noc1-c1ccc(O[C@H]2CCC[C@H](C(=O)O)C2)cn1 [Example 58]	37 nM	
Cc1noc(-c2ccc(O[C@H]3CCC[C@H](C(=O)O)C3)cn2)c1CNC(=O)OC1CC(C)(C)C1 [Example 59]	11 nM	
CCCCOC(=O)N(C)Cc1c(C)noc1-c1ccc(O[C@H]2CCC[C@H](C(=O)O)C2)cn1 [Example 60]	33 nM	
CC[C@H](C)COC(=O)NCc1c(C)noc1-c1ccc(O[C@H]2CCC[C@H](C(=O)O)C2)cn1 [Example 61]	8 nM	
Cc1noc(-c2ccc(O[C@H]3CCC[C@H](C(=O)O)C3)cn2)c1CNC(=O)OCCC1CC1 [Example 62]	77 nM	
Cc1noc(-c2ccc(O[C@H]3CCC[C@H](C(=O)O)C3)cn2)c1CNC(=O)OCC1CC1(C)C (some centres unmarked) [Example 63]	16 nM	
Cc1noc(-c2ccc(O[C@H]3CCC[C@H](C(=O)O)C3)cn2)c1CN(C)C(=O)OCc1ccccc1 [Example 64]	14 nM	
CCCCOC(=O)NCc1c(C)noc1-c1ccc(O[C@H]2CCC[C@H](C(=O)O)C2)cn1 [Example 65]	14 nM	
C[C@@H](N)[C@H]1CC[C@H](C(=O)Nc2ccncc2)CC1 [Example Y-27632]		allodynia and hyperalgesia (nerve-injured mice): completely abolished
Cc1noc(-c2ccc(CSCCC(=O)O)cc2)c1NC(=O)OC(C)c1ccccc1Cl (centres unmarked) [Ki16425]		invasion activity [1]: blocked; in vitro migration [2]: effectively blocked; development of renal fibrosis (UUO mice): closely resembled the profile of LPA1 (−/−) mice; induction of CTGF expression [3]: almost completely suppressed; chemotaxis of human foetal lung fibroblasts [4]: blocked
